PubChem BioAssay (NCI)
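Values below derive from 48-hour exposures of cells grown in 96-well plates, with endpoints linearly interpolated between the two concentrations bracketing the appropriate inhibition level. GI50 marks 50% less growth. TGI denotes the concentration required for complete inhibition of growth.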

Experiments:
Assay in all cases: growth of human tumour cells (NCI), 48 h
786-0 renal = test system: 786-0 renal
A498 renal = test system: A498 renal
A549 NSCLC = test system: A549 NSCLC
ACHN renal = test system: ACHN renal
BT-549 breast = test system: BT-549 breast
CAKI-1 renal = test system: CAKI-1 renal
CCRF-CEM leukemia = test system: CCRF-CEM leukemia
COLO 205 colon = test system: COLO 205 colon
DU-145 prostate = test system: DU-145 prostate
EKVX NSCLC = test system: EKVX NSCLC
HCC-2998 colon = test system: HCC-2998 colon
HCT-116 colon = test system: HCT-116 colon
HCT-15 colon = test system: HCT-15 colon
HL-60(TB) leukemia = test system: HL-60(TB) leukemia
HOP-62 NSCLC = test system: HOP-62 NSCLC
HOP-92 NSCLC = test system: HOP-92 NSCLC
HS 578T breast = test system: HS 578T breast
HT29 colon = test system: HT29 colon
IGROV1 ovarian = test system: IGROV1 ovarian
K-562 leukemia = test system: K-562 leukemia
KM12 colon = test system: KM12 colon
M14 melanoma = test system: M14 melanoma
MALME-3M melanoma = test system: MALME-3M melanoma
MCF7 breast = test system: MCF7 breast
MDA-MB-231 breast = test system: MDA-MB-231 breast
MDA-MB-435 = test system: MDA-MB-435
MOLT-4 leukemia = test system: MOLT-4 leukemia
NCI-H226 lung = test system: NCI-H226 lung
NCI-H23 lung = test system: NCI-H23 lung
NCI-H460 lung = test system: NCI-H460 lung
NCI-H522 lung = test system: NCI-H522 lung
NCI/ADR-RES ovarian = test system: NCI/ADR-RES ovarian
OVCAR-4 ovarian = test system: OVCAR-4 ovarian
OVCAR-5 ovarian = test system: OVCAR-5 ovarian
OVCAR-8 ovarian = test system: OVCAR-8 ovarian
PC-3 prostate = test system: PC-3 prostate
RPMI-8226 leukemia = test system: RPMI-8226 leukemia
RXF 393 renal = test system: RXF 393 renal
SF-268 CNS = test system: SF-268 CNS
SF-295 CNS = test system: SF-295 CNS
SF-539 CNS = test system: SF-539 CNS
SK-MEL-2 melanoma = test system: SK-MEL-2 melanoma
SK-MEL-28 melanoma = test system: SK-MEL-28 melanoma
SK-MEL-5 melanoma = test system: SK-MEL-5 melanoma
SK-OV-3 ovarian = test system: SK-OV-3 ovarian
SN12C renal = test system: SN12C renal
SNB-19 CNS = test system: SNB-19 CNS
SNB-75 CNS = test system: SNB-75 CNS
SR leukemia = test system: SR leukemia
SW-620 colon = test system: SW-620 colon
T-47D breast = test system: T-47D breast
TK-10 renal = test system: TK-10 renal
U251 CNS = test system: U251 CNS
UACC-257 melanoma = test system: UACC-257 melanoma
UACC-62 melanoma = test system: UACC-62 melanoma
UO-31 renal = test system: UO-31 renal

O=c1oc2ccc(-c3ccc(F)cc3F)cc2c(=O)n1-c1ccc(F)c(F)c1
GI50 (786-0 renal): 1.67 µM
TGI (786-0 renal): > 50 µM
GI50 (A498 renal): 0.374 µM
TGI (A498 renal): 1.7 µM
GI50 (A549 NSCLC): 1.58 µM
TGI (A549 NSCLC): > 50 µM
GI50 (ACHN renal): 1.41 µM
TGI (ACHN renal): 4.88 µM
GI50 (BT-549 breast): 1.35 µM
TGI (BT-549 breast): 4.9 µM
GI50 (CAKI-1 renal): 0.963 µM
TGI (CAKI-1 renal): 3.21 µM
GI50 (CCRF-CEM leukemia): 1.47 µM
TGI (CCRF-CEM leukemia): > 50 µM
GI50 (COLO 205 colon): 8.25 µM
TGI (COLO 205 colon): 27.1 µM
GI50 (DU-145 prostate): 1.75 µM
TGI (DU-145 prostate): > 50 µM
GI50 (EKVX NSCLC): 1.46 µM
TGI (EKVX NSCLC): 7.35 µM
GI50 (HCC-2998 colon): 1.7 µM
TGI (HCC-2998 colon): 48.7 µM
GI50 (HCT-116 colon): 1.26 µM
TGI (HCT-116 colon): 5.43 µM
GI50 (HCT-15 colon): 1.34 µM
TGI (HCT-15 colon): 5.24 µM
GI50 (HL-60(TB) leukemia): 1.06 µM
TGI (HL-60(TB) leukemia): 3.07 µM
GI50 (HOP-62 NSCLC): 1.41 µM
TGI (HOP-62 NSCLC): 5.94 µM
GI50 (HOP-92 NSCLC): 0.389 µM
TGI (HOP-92 NSCLC): 2.28 µM
GI50 (HS 578T breast): 1.57 µM
TGI (HS 578T breast): > 50 µM
GI50 (HT29 colon): 8.9 µM
TGI (HT29 colon): > 50 µM
GI50 (IGROV1 ovarian): 1.7 µM
TGI (IGROV1 ovarian): > 50 µM
GI50 (K-562 leukemia): 1.16 µM
TGI (K-562 leukemia): > 50 µM
GI50 (KM12 colon): 1.56 µM
TGI (KM12 colon): 5.26 µM
GI50 (M14 melanoma): 1.61 µM
TGI (M14 melanoma): 35.5 µM
GI50 (MALME-3M melanoma): 0.874 µM
TGI (MALME-3M melanoma): 2.51 µM
GI50 (MCF7 breast): 1.22 µM
TGI (MCF7 breast): > 50 µM
GI50 (MDA-MB-231 breast): 0.894 µM
TGI (MDA-MB-231 breast): 2.34 µM
GI50 (MDA-MB-435): 1.28 µM
TGI (MDA-MB-435): 5.46 µM
GI50 (MOLT-4 leukemia): 1.48 µM
TGI (MOLT-4 leukemia): 6.73 µM
GI50 (NCI-H226 lung): 1.41 µM
TGI (NCI-H226 lung): 6.24 µM
GI50 (NCI-H23 lung): 0.936 µM
TGI (NCI-H23 lung): 2.97 µM
GI50 (NCI-H460 lung): 1.32 µM
TGI (NCI-H460 lung): > 50 µM
GI50 (NCI-H522 lung): 0.666 µM
TGI (NCI-H522 lung): 8.62 µM
GI50 (NCI/ADR-RES ovarian): 1.32 µM
TGI (NCI/ADR-RES ovarian): > 50 µM
GI50 (OVCAR-4 ovarian): 1.35 µM
TGI (OVCAR-4 ovarian): > 50 µM
GI50 (OVCAR-5 ovarian): 1.62 µM
TGI (OVCAR-5 ovarian): > 50 µM
GI50 (OVCAR-8 ovarian): 1.62 µM
TGI (OVCAR-8 ovarian): > 50 µM
GI50 (PC-3 prostate): 1.42 µM
TGI (PC-3 prostate): > 50 µM
GI50 (RPMI-8226 leukemia): 0.589 µM
TGI (RPMI-8226 leukemia): 2.4 µM
GI50 (RXF 393 renal): 1.27 µM
TGI (RXF 393 renal): 4.02 µM
GI50 (SF-268 CNS): 1.38 µM
TGI (SF-268 CNS): > 50 µM
GI50 (SF-295 CNS): 1.15 µM
TGI (SF-295 CNS): 3.21 µM
GI50 (SF-539 CNS): 1.69 µM
TGI (SF-539 CNS): 13.8 µM
GI50 (SK-MEL-2 melanoma): 0.797 µM
TGI (SK-MEL-2 melanoma): 3.07 µM
GI50 (SK-MEL-28 melanoma): 1.19 µM
TGI (SK-MEL-28 melanoma): 8.2 µM
GI50 (SK-MEL-5 melanoma): 0.562 µM
TGI (SK-MEL-5 melanoma): 1.44 µM
GI50 (SK-OV-3 ovarian): 1.27 µM
TGI (SK-OV-3 ovarian): > 50 µM
GI50 (SN12C renal): 1.03 µM
TGI (SN12C renal): 4.29 µM
GI50 (SNB-19 CNS): 1.61 µM
TGI (SNB-19 CNS): > 50 µM
GI50 (SNB-75 CNS): 0.775 µM
TGI (SNB-75 CNS): 2.54 µM
GI50 (SR leukemia): 1.87 µM
TGI (SR leukemia): > 50 µM
GI50 (SW-620 colon): 1.77 µM
TGI (SW-620 colon): > 50 µM
GI50 (T-47D breast): 0.418 µM
TGI (T-47D breast): 3.64 µM
GI50 (TK-10 renal): 1.61 µM
TGI (TK-10 renal): 16.9 µM
GI50 (U251 CNS): 1.53 µM
TGI (U251 CNS): > 50 µM
GI50 (UACC-257 melanoma): 0.73 µM
TGI (UACC-257 melanoma): 4.04 µM
GI50 (UACC-62 melanoma): 0.519 µM
TGI (UACC-62 melanoma): 1.67 µM
GI50 (UO-31 renal): 1.1 µM
TGI (UO-31 renal): 4.67 µM
